The values below come from PubChem BioAssay (NCI).

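Method: 48-hour compound exposure of cells in 96-well plates, five concentrations, linear interpolation of endpoints. Abbreviation: GI50, concentration required for 50% inhibition of growth. TGI: total growth inhibition.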

Test systems include LOX IMVI melanoma; HCC-2998 colon; HOP-62 NSCLC; OVCAR-8 ovarian; K-562 leukemia; OVCAR-3 ovarian; SK-MEL-5 melanoma; RPMI-8226 leukemia; EKVX NSCLC; NCI-H226 lung.
Holding throughout (experiment): DTP human tumour cell line panel, 48 h

Usually GI50 stands for the concentration that inhibits growth by half. One may read the TGI as the concentration giving total growth inhibition. The low end stands for more potent growth arrest, the high end for less potent growth arrest. In the case of `COC(=O)CCC(=O)c1c(C)[nH]c(/C=C2\N=C(c3ccc[nH]3)C=C2OC)c1C`, the concentration for 50% growth inhibition (GI50) with LOX IMVI melanoma is 0.0666 µM; in the assay with HCC-2998 colon it was 1.41 µM; in the assay with HOP-62 NSCLC it was 0.85 µM; with OVCAR-8 ovarian, 0.754 µM; with K-562 leukemia, 1.24 µM; in the assay on OVCAR-3 ovarian, 0.353 µM. For the same compound, the GI50 with SK-MEL-5 melanoma was 0.567 µM; in the assay with RPMI-8226 leukemia, 0.36 µM; with EKVX NSCLC, 1.1 µM; with NCI-H226 lung, 1.08 µM. Further, the total growth inhibition concentration (TGI) worked out at 0.261 µM in the assay on LOX IMVI melanoma; 5.84 µM with HCC-2998 colon; 2.33 µM in the assay on HOP-62 NSCLC; 2.23 µM with OVCAR-8 ovarian; 3.18 µM in the assay with K-562 leukemia; 1.7 µM with OVCAR-3 ovarian. The TGI turned out to be 1.71 µM with SK-MEL-5 melanoma, 1.87 µM in the assay on RPMI-8226 leukemia, 2.94 µM in the assay on EKVX NSCLC and 3.27 µM in the assay with NCI-H226 lung.

For the compound `CN(C)CCn1c2ccccc2c2nc3cc4ccccc4cc3nc21`, the TGI in the assay with LOX IMVI melanoma came to 15.6 µM; with HCC-2998 colon, 17.7 µM; with HOP-62 NSCLC, 20.1 µM; with OVCAR-8 ovarian, 23 µM; with K-562 leukemia it was 10.9 µM; in the assay with OVCAR-3 ovarian it was 28.2 µM. Further, the TGI with SK-MEL-5 melanoma amounted to 26.5 µM; with RPMI-8226 leukemia, 13.2 µM; in the assay on EKVX NSCLC, 31.8 µM; in the assay with NCI-H226 lung it was 34.6 µM.

For `Cc1ccc(C)c(NC(=O)c2cc(-c3ccc([N+](=O)[O-])cc3)nc(N)n2)c1`, the TGI in the assay on LOX IMVI melanoma, with HCC-2998 colon, with HOP-62 NSCLC, with OVCAR-8 ovarian, in the assay on K-562 leukemia and in the assay with OVCAR-3 ovarian was over 100 µM each time. The TGI in the assay with SK-MEL-5 melanoma, in the assay with RPMI-8226 leukemia, in the assay with EKVX NSCLC and in the assay on NCI-H226 lung was over 100 µM throughout.

For the compound `COc1ccc2c(c1)c(C1(c3cn(C)c4ccc(OC)cc34)C(=O)Nc3ccc(F)cc31)cn2C`, the GI50 in the assay on LOX IMVI melanoma is 4.45 µM; in the assay with HCC-2998 colon, 4.53 µM; with HOP-62 NSCLC, 7.62 µM; with OVCAR-8 ovarian it was 4.28 µM; in the assay on K-562 leukemia, 4.61 µM; in the assay on OVCAR-3 ovarian, 10.2 µM. Also, the GI50 with SK-MEL-5 melanoma is 5.64 µM; in the assay on RPMI-8226 leukemia, 6.77 µM; in the assay on EKVX NSCLC, 3.05 µM; in the assay on NCI-H226 lung, 11.9 µM. Besides, the TGI is over 100 µM with LOX IMVI melanoma; over 100 µM in the assay with HCC-2998 colon; over 100 µM in the assay with HOP-62 NSCLC; over 100 µM in the assay with OVCAR-8 ovarian; over 100 µM with K-562 leukemia; 87.4 µM in the assay with OVCAR-3 ovarian. Further, the TGI with SK-MEL-5 melanoma is 18.9 µM; with RPMI-8226 leukemia, over 100 µM; in the assay on EKVX NSCLC, over 100 µM; in the assay on NCI-H226 lung, over 100 µM.

On to `O=c1cc(Cl)nc[nH]1`, for which the TGI in the assay with LOX IMVI melanoma, in the assay on HCC-2998 colon, with HOP-62 NSCLC, in the assay with OVCAR-8 ovarian, in the assay on K-562 leukemia and in the assay with OVCAR-3 ovarian was over 100 µM each time. Besides, the TGI with SK-MEL-5 melanoma, in the assay on RPMI-8226 leukemia, in the assay on EKVX NSCLC and with NCI-H226 lung was over 100 µM throughout.

For `CCCN(CCC)c1ccc(CO)c(C)c1`, the GI50 was over 100 µM with LOX IMVI melanoma; over 100 µM with HCC-2998 colon; over 100 µM in the assay on HOP-62 NSCLC; 27.4 µM in the assay on OVCAR-8 ovarian; 27.4 µM with K-562 leukemia; 23 µM with OVCAR-3 ovarian. Moreover, the GI50 is 18.9 µM with SK-MEL-5 melanoma, 18.4 µM with RPMI-8226 leukemia, 28.4 µM with EKVX NSCLC and 9.4 µM with NCI-H226 lung. The TGI with LOX IMVI melanoma, in the assay with HCC-2998 colon, with HOP-62 NSCLC, with OVCAR-8 ovarian, with K-562 leukemia and in the assay on OVCAR-3 ovarian was over 100 µM each time. For the same compound, the TGI in the assay with SK-MEL-5 melanoma was 62.3 µM; in the assay on RPMI-8226 leukemia, 50 µM; in the assay with EKVX NSCLC, over 100 µM; with NCI-H226 lung, 23.7 µM.

With `CCC[C@H](N[C@@H]1CCc2cc(F)cc(F)c2C1)C(=O)Nc1cn(C(C)(C)CNCC(C)(C)C)cn1`, the GI50 with LOX IMVI melanoma is 15.5 µM; in the assay on HCC-2998 colon, 17.8 µM; with HOP-62 NSCLC it was 20.8 µM; in the assay on OVCAR-8 ovarian it was 27.5 µM; in the assay on K-562 leukemia, 8.33 µM; with OVCAR-3 ovarian, 15.3 µM. Moreover, the GI50 with SK-MEL-5 melanoma is 12.2 µM; in the assay on RPMI-8226 leukemia, 5.98 µM; with EKVX NSCLC it was 21 µM; in the assay on NCI-H226 lung, 16.5 µM. In addition, the TGI in the assay on LOX IMVI melanoma is 30.6 µM; in the assay with HCC-2998 colon, over 81.1 µM; in the assay on HOP-62 NSCLC it was 75.1 µM; with OVCAR-8 ovarian, over 100 µM; in the assay on K-562 leukemia it was over 89.2 µM; with OVCAR-3 ovarian, 42.9 µM. For the same compound, the TGI in the assay with SK-MEL-5 melanoma was 24.8 µM; in the assay on RPMI-8226 leukemia, 34.8 µM; with EKVX NSCLC, over 100 µM; in the assay with NCI-H226 lung, 52.9 µM.

In the case of `Cc1c(C(=O)/C=C/c2ccc(Cl)cc2)[n+](=O)c2ccccc2n1[O-]`, the TGI in the assay with LOX IMVI melanoma worked out at 20.5 µM; in the assay on HCC-2998 colon, 24.5 µM; in the assay with HOP-62 NSCLC, 63.5 µM; in the assay with OVCAR-8 ovarian, 23.3 µM; in the assay on K-562 leukemia, 52.9 µM; in the assay on OVCAR-3 ovarian, 27.4 µM. In addition, the TGI in the assay on RPMI-8226 leukemia came out at 42.4 µM; in the assay with EKVX NSCLC it was 31.2 µM; in the assay with NCI-H226 lung, 33.7 µM.

In the case of `CN1CCN(c2ccc3nc(-c4cc(C(C)(C)C)c(O)c(C(C)(C)C)c4)[nH]c3c2)CC1`, the GI50 in the assay on LOX IMVI melanoma is 1.83 µM; in the assay with HCC-2998 colon, 1.85 µM; in the assay with HOP-62 NSCLC, 2.29 µM; in the assay on OVCAR-8 ovarian, 5 µM; in the assay on K-562 leukemia, 1.94 µM; in the assay on OVCAR-3 ovarian, 4.06 µM. Besides, the GI50 is 1.76 µM in the assay with SK-MEL-5 melanoma, 2.08 µM in the assay with RPMI-8226 leukemia, 4.3 µM with EKVX NSCLC and 14.7 µM in the assay with NCI-H226 lung. Further, the TGI in the assay with LOX IMVI melanoma is 3.41 µM; with HCC-2998 colon it was 3.43 µM; in the assay with HOP-62 NSCLC, 5 µM; in the assay with OVCAR-8 ovarian, 19.1 µM; in the assay with K-562 leukemia, 4.97 µM; with OVCAR-3 ovarian it was 14 µM. Moreover, the TGI with SK-MEL-5 melanoma was 3.17 µM; in the assay with RPMI-8226 leukemia, 4.85 µM; in the assay with EKVX NSCLC, 16.5 µM; in the assay with NCI-H226 lung, 32.4 µM.
